From patent publication US4479951A, “1.4;3.6-Dianhydrohexitol nitrates substituted by purine bases, processes for their preparation and pharmaceutical compositions” (Dr. Willmar Schwabe GmbH & Co., priority 1980, dated 1984)

Key:
female NMRI-albino mice = assay: acute toxicity, intravenous; type: in vivo; settings: mouse, in vivo
[1] = acute toxicity, intravenous; type: in vivo; settings: mouse, in vivo, iv; read-out: Evaluated LD50-range
[2] = system: isolated rat aorta preparations; assay: spasmolytic effectiveness, noradrenaline-induced contractions; settings: read-out: ED50 noradrenaline spasm
mongrel cats = assay: heart-circulation effectiveness on narcotised mongrel cats, intraduodenal administration; settings: 5 mg/kg intraduodenal
Description: The animals were narcotised with a mixture of chloralose-urethane (1.2 g./kg. urethane+40 mg./kg. chloralose administered i.p.). They breathed spontaneously through a tracheal canula. The A. carotis sinistra was used in order to place a catheter tip monometer in the left chamber of the heart. The V. jugularis served for injection purposes. Via the A. femoralis dextra, a catheter was inserted up into the Aorta descendans and connected to a pressure recorder (Statham P 23Db). The heart frequency was recorded with a pulse frequency measurer (Firm Hugo Sachs Elektronik) from the left ventricular pressure signal. A duodenal loop was exposed by laparotomy. The substances to be tested were injected directly into the lumen.

guinea pigs = assay: blood pressure-lowering effectiveness on narcotised guinea pigs, intravenous; type: in vivo, guinea pig; settings: for blood pressure previously: before administration
[3] = printed on the 0 min line (= change 0 to 10 min)
[4] = printed on the 10 min line (= change 0 to 30 min)
[5] = printed on the 30 min line (= change 0 to 60 min)
[6] = printed on the 60 min line (= change 0 to 120 min)

Nc1ncnc2c1ncn2[C@H]1CO[C@H]2[C@@H]1OC[C@@H]2O[N+](=O)[O-] [1c/2c, 5-(9-Adenyl)-5-desoxy-1.4;3.6-dianhydro-L-iditol 2-nitrate]
Frequency of death (female NMRI-albino mice): 0/6
LD50 at 24 h [1]: > 200 mg/kg
IC50 [2]: 135 nM
blood pressure (mongrel cats; 0 min): 124.2 ± 8.3 mm. Hg
dp/dt (mongrel cats; 0 min): 7220 ± 611 mm sec
heart frequency (mongrel cats; 0 min): 171.6 ± 6.2 min⁻¹
blood pressure (mongrel cats; 10 min): 108.6 ± 8.5 mm. Hg
dp/dt (mongrel cats; 10 min): 7500 ± 522 mm sec
heart frequency (mongrel cats; 10 min): 180.4 ± 4.3 min⁻¹
blood pressure (mongrel cats; 30 min): 107.8 ± 8.4 mm. Hg
dp/dt (mongrel cats; 30 min): 6960 ± 564 mm sec
heart frequency (mongrel cats; 30 min): 177.2 ± 5.4 min⁻¹
blood pressure (mongrel cats; 60 min): 106.6 ± 7.8 mm. Hg
dp/dt (mongrel cats; 60 min): 7100 ± 721 mm sec
heart frequency (mongrel cats; 60 min): 177.6 ± 5.1 min⁻¹
blood pressure (mongrel cats; 120 min): 106.2 ± 5.6 mm. Hg
dp/dt (mongrel cats; 120 min): 7000 ± 1026 mm sec
heart frequency (mongrel cats; 120 min): 178.8 ± 4.4 min⁻¹
blood pressure Δ (mongrel cats; [3]): -15.6 mm. Hg
dp/dt Δ (mongrel cats; [3]): +280 mm sec
blood pressure Δ (mongrel cats; [4]): -16.4 mm. Hg
dp/dt Δ (mongrel cats; [4]): -260 mm sec
blood pressure Δ (mongrel cats; [5]): -17.6 mm. Hg
dp/dt Δ (mongrel cats; [5]): -120 mm sec
blood pressure Δ (mongrel cats; [6]): -18.0 mm. Hg
dp/dt Δ (mongrel cats; [6]): -220 mm sec
blood pressure afterwards (guinea pigs; 0.25 mg/kg i.v.): 50.50 ± 2.33 mm. Hg
blood pressure Δ (guinea pigs; 0.25 mg/kg i.v.): -17.75 mm. Hg
blood pressure previously (guinea pigs; 0.25 mg/kg i.v.): 68.25 ± 2.50 mm. Hg
blood pressure afterwards (guinea pigs; 1.00 mg/kg i.v.): 41.50 ± 3.97 mm. Hg
blood pressure Δ (guinea pigs; 1.00 mg/kg i.v.): -28.00 mm. Hg
blood pressure previously (guinea pigs; 1.00 mg/kg i.v.): 69.50 ± 2.90 mm. Hg
blood pressure afterwards (guinea pigs; 2.50 mg/kg i.v.): 38.75 ± 2.66 mm. Hg
blood pressure Δ (guinea pigs; 2.50 mg/kg i.v.): -31.25 mm. Hg
blood pressure previously (guinea pigs; 2.50 mg/kg i.v.): 70.00 ± 2.27 mm. Hg
blood pressure-lowering effectiveness, comparison (guinea pigs; i.v.): even more effective than ISDN
